Active and inactive are the calls of the source. No cut-off for these calls is given here.
Tests used:
[1] = test system: Escherichia coli; experiment: Antibacterial activity against Escherichia coli KCTC 1682 assessed as zone of clearance incubated for 4 hrs in presence of alpha-chymotrypsin by radical diffusion assay; assay type: functional, organism-based
[2] = test system: Escherichia coli; experiment: Antibacterial activity against Escherichia coli KCTC 1682 assessed as zone of clearance incubated for 4 hrs in presence of proteinase K by radical diffusion assay; assay type: functional, organism-based
[3] = test system: Mus musculus; experiment: Antiseptic activity in sepsis shock ICR mouse model infected with carbapenem-resistant Acinetobacter baumannii assessed as reduction in bacterial count in lungs at 1 mg/kg, ip pretreated with compound for 3 hrs followed by bacterial infection measured after 16 hrs relative to control; assay type: functional; set-up: scale not given: the % may be the effect or the level left; conditions: time 19 hrs
[4] = target: Toll-like receptor 4 (Homo sapiens) (UniProt O00206); experiment: Inhibition of LPS-induced human TLR4 activation expressed in HEK-Blue hTLR4 cells assessed as decrease in SEAP activity at 12.5 uM pretreated for 1 hr followed by LPS treatment for 16 hrs by absorbance based assay relative to control; assay type: cell-based; conditions: time 17.0 hrs
[5] = test system: Acinetobacter baumannii; experiment: Antibacterial activity against carbapenem-resistant Acinetobacter baumannii 1707 incubated for 24 hrs by CLSI based broth microdilution method; assay type: functional, organism-based
[6] = test system: Mus musculus; experiment: Antiseptic activity in sepsis shock ICR mouse model infected with carbapenem-resistant Acinetobacter baumannii assessed as reduction in bacterial count in liver at 1 mg/kg, ip pretreated with compound for 3 hrs followed by bacterial infection measured after 16 hrs relative to control; assay type: functional; set-up: scale not given: the % may be the effect or the level left; conditions: time 19 hrs
[7] = Effect on secondary structure of drug in SDS assessed as formation of left-handed alpha-helical conformation at 150 uM by CD analysis; assay type: physicochemical
[8] = test system: Mus musculus; experiment: Antiseptic activity in sepsis shock ICR mouse model infected with carbapenem-resistant Acinetobacter baumannii assessed as reduction in serum IL-6 level at 1 mg/kg, ip pre-infected with bacteria followed by compound administration 1 hr post-infection measured after 16 hrs relative to control; assay type: functional; set-up: scale not given: the % may be the effect or the level left
[9] = test system: Acinetobacter baumannii; experiment: Antibacterial activity against carbapenem-resistant Acinetobacter baumannii-induced sepsis shock in ICR mouse model assessed as bacterial growth inhibition in lung at 1 mg/kg, ip pretreated with compound for 1 hr followed by bacterial infection measured after 16 hrs relative to control; assay type: functional; conditions: time 17 hrs
[10] = test system: Mus musculus; experiment: Antiseptic activity in sepsis shock ICR mouse model infected with carbapenem-resistant Acinetobacter baumannii assessed as decrease in ALT level in serum at 1 mg/kg, ip pretreated with compound for 1 hr followed by bacterial infection measured after 16 hrs relative to control; assay type: functional; set-up: scale not given: the % may be the effect or the level left; conditions: time 17 hrs
[11] = species on record: Homo sapiens; experiment: Binding affinity to CM5 chip-immobilized TLR4/MD2 (unknown origin) complex by SPR analysis
[12] = test system: Mus musculus; experiment: Antiseptic activity in sepsis shock ICR mouse model infected with carbapenem-resistant Acinetobacter baumannii assessed as reduction in bacterial count in kidney at 1 mg/kg, ip pretreated with compound for 1 hr followed by bacterial infection measured after 16 hrs relative to control; assay type: functional; set-up: scale not given: the % may be the effect or the level left; conditions: time 17 hrs
[13] = test system: Mus musculus; experiment: Antiseptic activity in sepsis shock ICR mouse model infected with carbapenem-resistant Acinetobacter baumannii assessed as reduction in serum IL-6 level at 1 mg/kg, ip pretreated with compound for 1 hr followed by bacterial infection measured after 16 hrs relative to control; assay type: functional; set-up: scale not given: the % may be the effect or the level left; conditions: time 17 hrs
[14] = test system: RAW264.7; experiment: Displacement of FITC-labeled LPS pre-bound to surface receptors of mouse RAW264.7 cells incubated for 1 hr by flow cytometry; assay type: cell-based
[15] = target: T1, Toll-like receptor 4 (Mus musculus) (UniProt Q9QUK6); experiment: Inhibition of LPS-induced TLR4 activation in mouse RAW264.7 cells assessed as decrease in ERK phosphorylation at 2 uM pretreated for 1 hr followed by LPS treatment for 30 mins by Western blot analysis relative to control; assay type: cell-based; conditions: time 90.0 min
T1 sequence (whole entry): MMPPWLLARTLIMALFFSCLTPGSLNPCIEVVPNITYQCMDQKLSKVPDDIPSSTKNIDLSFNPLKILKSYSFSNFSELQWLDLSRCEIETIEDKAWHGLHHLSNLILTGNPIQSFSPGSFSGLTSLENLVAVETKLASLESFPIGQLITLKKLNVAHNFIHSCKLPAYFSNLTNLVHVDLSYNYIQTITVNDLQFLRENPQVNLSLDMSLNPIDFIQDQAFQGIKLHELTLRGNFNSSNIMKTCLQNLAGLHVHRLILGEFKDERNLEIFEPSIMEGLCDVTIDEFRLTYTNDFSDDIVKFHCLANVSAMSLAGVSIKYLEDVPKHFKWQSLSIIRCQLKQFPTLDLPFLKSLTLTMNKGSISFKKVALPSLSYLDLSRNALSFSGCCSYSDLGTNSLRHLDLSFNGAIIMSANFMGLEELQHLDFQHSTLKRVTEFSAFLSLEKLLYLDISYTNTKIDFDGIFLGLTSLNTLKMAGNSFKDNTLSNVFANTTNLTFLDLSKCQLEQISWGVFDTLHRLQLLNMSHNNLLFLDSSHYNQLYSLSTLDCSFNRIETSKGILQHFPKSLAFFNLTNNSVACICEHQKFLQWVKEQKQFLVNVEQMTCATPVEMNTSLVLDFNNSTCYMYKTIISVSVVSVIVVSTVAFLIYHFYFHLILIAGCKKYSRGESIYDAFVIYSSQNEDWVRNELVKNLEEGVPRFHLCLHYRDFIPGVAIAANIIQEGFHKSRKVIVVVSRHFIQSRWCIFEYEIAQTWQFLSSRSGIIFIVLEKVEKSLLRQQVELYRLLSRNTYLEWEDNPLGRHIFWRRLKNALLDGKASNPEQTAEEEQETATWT

[16] = test system: Mus musculus; experiment: (§1) Antiseptic activity in sepsis shock ICR mouse model infected with carbapenem-resistant Acinetobacter baumannii assessed as reduction in serum IL-6 level at 1 mg/kg, ip pre-infected with bacteria followed by compound administration 3 hrs post-infection measured after 16 hrs relative to control; assay type: functional; set-up: scale not given: the % may be the effect or the level left
[17] = test system: Lipopolysaccharide (LPS); experiment: Displacement of BODIPY-TR-cadaverine from cell-free LPS (unknown origin) at 16 uM incubated for 30 mins by fluorescence based assay relative to control
[18] = target: T1, Toll-like receptor 4 (Mus musculus); experiment: Inhibition of LPS-induced TLR4 activation in mouse RAW264.7 cells assessed as decrease in phosphorylated NF-kappaB nuclear translocation at 10 uM pretreated for 1 hr followed by LPS treatment for 30 mins by CLSM analysis; assay type: cell-based; conditions: time 90.0 min
[19] = test system: Mus musculus; experiment: as §1, with “bacterial count in kidney” for “serum IL-6 level”; assay type: functional; set-up: scale not given: the % may be the effect or the level left
[20] = test system: Mus musculus; experiment: Antiseptic activity in sepsis shock ICR mouse model infected with carbapenem-resistant Acinetobacter baumannii assessed as reduction in bacterial count in kidney at 1 mg/kg, ip pretreated with compound for 3 hrs followed by bacterial infection measured after 16 hrs relative to control; assay type: functional; set-up: scale not given: the % may be the effect or the level left; conditions: time 19 hrs
[21] = test system: Acinetobacter baumannii; experiment: Antibacterial activity against carbapenem-resistant Acinetobacter baumannii 1915 incubated for 24 hrs by CLSI based broth microdilution method; assay type: functional, organism-based

Toll-like receptor 4 (Homo sapiens), sequence (O00206 whole entry): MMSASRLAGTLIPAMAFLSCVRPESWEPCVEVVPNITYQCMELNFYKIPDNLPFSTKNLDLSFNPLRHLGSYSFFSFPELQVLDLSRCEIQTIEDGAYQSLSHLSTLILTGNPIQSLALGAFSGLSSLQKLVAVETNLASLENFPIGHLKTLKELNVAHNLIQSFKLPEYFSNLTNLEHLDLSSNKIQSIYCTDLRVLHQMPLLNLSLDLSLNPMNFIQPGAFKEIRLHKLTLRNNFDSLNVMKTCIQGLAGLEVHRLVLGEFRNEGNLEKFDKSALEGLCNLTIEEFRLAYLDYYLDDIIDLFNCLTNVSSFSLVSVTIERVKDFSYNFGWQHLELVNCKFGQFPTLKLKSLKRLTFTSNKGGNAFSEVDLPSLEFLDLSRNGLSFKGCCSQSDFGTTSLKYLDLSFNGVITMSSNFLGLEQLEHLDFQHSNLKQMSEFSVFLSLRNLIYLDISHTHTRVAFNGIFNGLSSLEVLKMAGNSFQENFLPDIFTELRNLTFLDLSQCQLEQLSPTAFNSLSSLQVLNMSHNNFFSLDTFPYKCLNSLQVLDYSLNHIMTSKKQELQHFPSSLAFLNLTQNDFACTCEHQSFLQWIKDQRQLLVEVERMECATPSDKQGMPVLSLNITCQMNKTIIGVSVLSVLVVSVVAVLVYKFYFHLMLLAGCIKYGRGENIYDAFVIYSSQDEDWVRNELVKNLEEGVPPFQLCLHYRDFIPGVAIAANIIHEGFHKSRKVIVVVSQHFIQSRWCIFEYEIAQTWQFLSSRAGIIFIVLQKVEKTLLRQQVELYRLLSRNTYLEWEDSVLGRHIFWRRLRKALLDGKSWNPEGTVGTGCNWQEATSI

Substance: H-GVFRLKKWIKKVIKKWGK-NH2
- Activity [1]: inactive
- Activity [2]: inactive

Substance: H-GVFRLKKWLKKVKKWGK-NH2
- Activity [3]: 98%
- inhibition [4]: 92.1%
- Activity [5]: Active
- Activity [6]: 99.4%
- Activity [7]: Active
- Activity [8]: 97.9%
- inhibition in vivo at 1 mg/kg [9]: 96.5%
- Activity [10]: 67.8%
- Activity [11]: 9.4 10^-7M
- Activity [12]: 99.6%
- Activity [13]: 100%
- Activity [14]: Active; Activity Similar To Ll-37
- inhibition [15]: 27%
- Activity [16]: 14.8%
- Activity [17]: 80%
- inhibition [18]: Active
- Activity [19]: 91.8%
- Activity [20]: 98.5%
- Activity [21]: Active
